# In PubChem BioAssay (NCI):
#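 GI50: concentration for 50% inhibition of growth. TGI: concentration producing complete growth inhibition.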
# What was measured:
# Test in all cases: inhibition of tumour cell growth, NCI panel, 384-well format
# HCC-2998 colon = tested on: HCC-2998 colon
# HCT-15 colon = tested on: HCT-15 colon
# SN12C renal = tested on: SN12C renal
# SK-MEL-28 melanoma = tested on: SK-MEL-28 melanoma
# OVCAR-4 ovarian = tested on: OVCAR-4 ovarian
# NCI-H226 lung = tested on: NCI-H226 lung
# UACC-62 melanoma = tested on: UACC-62 melanoma
# A549 NSCLC = tested on: A549 NSCLC
# HS 578T breast = tested on: HS 578T breast
# RPMI-8226 leukemia = tested on: RPMI-8226 leukemia
# NCI/ADR-RES ovarian = tested on: NCI/ADR-RES ovarian
# SNB-75 CNS = tested on: SNB-75 CNS
# OVCAR-3 ovarian = tested on: OVCAR-3 ovarian
# MDA-MB-435 melanoma = tested on: MDA-MB-435 melanoma
# HL-60(TB) leukemia = tested on: HL-60(TB) leukemia
# BT-549 breast = tested on: BT-549 breast
# HOP-62 NSCLC = tested on: HOP-62 NSCLC
# TK-10 renal = tested on: TK-10 renal
# DU-145 prostate = tested on: DU-145 prostate
# 786-0 renal = tested on: 786-0 renal
# A498 renal = tested on: A498 renal
# MOLT-4 leukemia = tested on: MOLT-4 leukemia
# NCI-H460 NSCLC = tested on: NCI-H460 NSCLC
# OVCAR-5 ovarian = tested on: OVCAR-5 ovarian
# HT29 colon = tested on: HT29 colon
# OVCAR-8 ovarian = tested on: OVCAR-8 ovarian
# PC-3 prostate = tested on: PC-3 prostate
# HOP-92 NSCLC = tested on: HOP-92 NSCLC
# MALME-3M melanoma = tested on: MALME-3M melanoma
# CAKI-1 renal = tested on: CAKI-1 renal
# KM12 colon = tested on: KM12 colon
# UO-31 renal = tested on: UO-31 renal
# MDA-MB-468 breast = tested on: MDA-MB-468 breast
# ACHN renal = tested on: ACHN renal
# MDA-MB-231 breast = tested on: MDA-MB-231 breast
# NCI-H23 lung = tested on: NCI-H23 lung
# SR leukemia = tested on: SR leukemia
# SF-539 CNS = tested on: SF-539 CNS
# T-47D breast = tested on: T-47D breast
# MCF7 breast = tested on: MCF7 breast
# EKVX NSCLC = tested on: EKVX NSCLC
# RXF 393 renal = tested on: RXF 393 renal
# K-562 leukemia = tested on: K-562 leukemia
# SF-268 CNS = tested on: SF-268 CNS
# SK-OV-3 ovarian = tested on: SK-OV-3 ovarian
# SW-620 colon = tested on: SW-620 colon
# SNB-19 CNS = tested on: SNB-19 CNS
# NCI-H322M lung = tested on: NCI-H322M lung
# CCRF-CEM leukemia = tested on: CCRF-CEM leukemia
# LOX IMVI melanoma = tested on: LOX IMVI melanoma
# NCI-H522 lung = tested on: NCI-H522 lung
# IGROV1 ovarian = tested on: IGROV1 ovarian
# COLO 205 colon = tested on: COLO 205 colon
# UACC-257 melanoma = tested on: UACC-257 melanoma
# SF-295 CNS = tested on: SF-295 CNS
# SK-MEL-5 melanoma = tested on: SK-MEL-5 melanoma
# M14 melanoma = tested on: M14 melanoma
compound,measurement,setting,value
CN1CCN(C(=O)COc2ccc(C34CC5CC(CC(C5)C3)C4)cc2)CC1,GI50,HCC-2998 colon,1.56 µM
same,TGI,HCC-2998 colon,3.11 µM
same,GI50,HCT-15 colon,1.84 µM
same,TGI,HCT-15 colon,3.37 µM
same,GI50,SN12C renal,11.8 µM
same,TGI,SN12C renal,24.2 µM
same,GI50,SK-MEL-28 melanoma,1.74 µM
same,TGI,SK-MEL-28 melanoma,3.19 µM
same,GI50,OVCAR-4 ovarian,8.56 µM
same,TGI,OVCAR-4 ovarian,20.7 µM
same,GI50,NCI-H226 lung,6.3 µM
same,TGI,NCI-H226 lung,19.3 µM
same,GI50,UACC-62 melanoma,1.81 µM
same,TGI,UACC-62 melanoma,3.32 µM
same,GI50,A549 NSCLC,5.49 µM
same,TGI,A549 NSCLC,17.8 µM
same,GI50,HS 578T breast,3.17 µM
same,TGI,HS 578T breast,10.6 µM
same,GI50,RPMI-8226 leukemia,1.7 µM
same,TGI,RPMI-8226 leukemia,3.22 µM
same,GI50,NCI/ADR-RES ovarian,7.51 µM
same,TGI,NCI/ADR-RES ovarian,20.1 µM
same,GI50,SNB-75 CNS,11.9 µM
same,TGI,SNB-75 CNS,24.3 µM
same,GI50,OVCAR-3 ovarian,7.07 µM
same,TGI,OVCAR-3 ovarian,19.7 µM
same,GI50,MDA-MB-435 melanoma,3.94 µM
same,TGI,MDA-MB-435 melanoma,13.4 µM
same,GI50,HL-60(TB) leukemia,1.8 µM
same,TGI,HL-60(TB) leukemia,3.21 µM
same,GI50,BT-549 breast,3.48 µM
same,TGI,BT-549 breast,16 µM
same,GI50,HOP-62 NSCLC,4.84 µM
same,TGI,HOP-62 NSCLC,16.5 µM
same,GI50,TK-10 renal,9.41 µM
same,TGI,TK-10 renal,21.3 µM
same,GI50,DU-145 prostate,12.1 µM
same,TGI,DU-145 prostate,24.6 µM
same,GI50,786-0 renal,1.74 µM
same,TGI,786-0 renal,3.24 µM
same,GI50,A498 renal,1.62 µM
same,TGI,A498 renal,3.12 µM
same,GI50,MOLT-4 leukemia,1.79 µM
same,TGI,MOLT-4 leukemia,4.27 µM
same,GI50,NCI-H460 NSCLC,2.48 µM
same,TGI,NCI-H460 NSCLC,5.79 µM
same,GI50,OVCAR-5 ovarian,5.11 µM
same,TGI,OVCAR-5 ovarian,16.6 µM
same,GI50,HT29 colon,1.72 µM
same,TGI,HT29 colon,3.31 µM
same,GI50,OVCAR-8 ovarian,10.3 µM
same,TGI,OVCAR-8 ovarian,22.1 µM
same,GI50,PC-3 prostate,8.05 µM
same,TGI,PC-3 prostate,20.6 µM
same,GI50,HOP-92 NSCLC,3.58 µM
same,TGI,HOP-92 NSCLC,15.7 µM
same,GI50,MALME-3M melanoma,1.7 µM
same,TGI,MALME-3M melanoma,3.19 µM
same,GI50,CAKI-1 renal,2.22 µM
same,TGI,CAKI-1 renal,4.56 µM
same,GI50,KM12 colon,2.18 µM
same,TGI,KM12 colon,4.77 µM
same,GI50,UO-31 renal,11.3 µM
same,TGI,UO-31 renal,23.9 µM
same,GI50,MDA-MB-468 breast,1.93 µM
same,TGI,MDA-MB-468 breast,3.7 µM
same,GI50,ACHN renal,7.11 µM
same,TGI,ACHN renal,19.6 µM
same,GI50,MDA-MB-231 breast,6.09 µM
same,TGI,MDA-MB-231 breast,18.5 µM
same,GI50,NCI-H23 lung,4.5 µM
same,TGI,NCI-H23 lung,15.9 µM
same,GI50,SR leukemia,1.68 µM
same,TGI,SR leukemia,3.08 µM
same,GI50,SF-539 CNS,3.98 µM
same,TGI,SF-539 CNS,13.8 µM
same,GI50,T-47D breast,2.66 µM
same,TGI,T-47D breast,10.6 µM
same,GI50,MCF7 breast,2.08 µM
same,TGI,MCF7 breast,6.06 µM
same,GI50,EKVX NSCLC,11.4 µM
same,TGI,EKVX NSCLC,23.6 µM
same,GI50,RXF 393 renal,1.85 µM
same,TGI,RXF 393 renal,4.12 µM
same,GI50,K-562 leukemia,1.64 µM
same,TGI,K-562 leukemia,3.17 µM
same,GI50,SF-268 CNS,4.74 µM
same,TGI,SF-268 CNS,16.2 µM
same,GI50,SK-OV-3 ovarian,7.12 µM
same,TGI,SK-OV-3 ovarian,19.8 µM
same,GI50,SW-620 colon,1.78 µM
same,TGI,SW-620 colon,3.31 µM
same,GI50,SNB-19 CNS,10.5 µM
same,TGI,SNB-19 CNS,22.3 µM
same,GI50,NCI-H322M lung,3.81 µM
same,TGI,NCI-H322M lung,13.5 µM
same,GI50,CCRF-CEM leukemia,2.03 µM
same,TGI,CCRF-CEM leukemia,4.43 µM
same,GI50,LOX IMVI melanoma,2.31 µM
same,TGI,LOX IMVI melanoma,5.31 µM
same,GI50,NCI-H522 lung,8.25 µM
same,TGI,NCI-H522 lung,20.5 µM
same,GI50,IGROV1 ovarian,12.7 µM
same,TGI,IGROV1 ovarian,25.3 µM
same,GI50,COLO 205 colon,1.79 µM
same,TGI,COLO 205 colon,3.21 µM
same,GI50,UACC-257 melanoma,2.19 µM
same,TGI,UACC-257 melanoma,4.32 µM
same,GI50,SF-295 CNS,2.85 µM
same,TGI,SF-295 CNS,8.18 µM
same,GI50,SK-MEL-5 melanoma,1.85 µM
same,TGI,SK-MEL-5 melanoma,3.37 µM
same,GI50,M14 melanoma,1.87 µM
same,TGI,M14 melanoma,3.41 µM
